The experiment deals with L1210 leukemia ip in BDF1 mice, survival T/C. Put plainly: NCI In Vivo Anticancer Drug Screen. Data for tumor model L1210 Leukemia (intraperitoneal) in B6D2F1 (BDF1) mice. Conditions: endpoint: mean survival time, higher = longer survival. Put shortly:
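Value reflects the ratio of survival in compound-treated mice to survival in vehicle-treated controls, with both groups carrying the same transplanted tumor.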

Inconclusive results and toxic doses are left out.

For the molecule `Cc1ccc(C(C)O)cc1` (stereo not given), the T/C is, setting by setting: (dose: 100.0 mg/kg/injection, schedule: Q04DX002 (ip), vehicle: Klucel (hydroxypropylcellulose) (HPC)) 98 % of control; (dose: 200.0 mg/kg/injection, schedule: Q04DX002 (ip), vehicle: Klucel (hydroxypropylcellulose) (HPC)) 98 % of control; (dose: 400.0 mg/kg/injection, schedule: Q04DX002 (ip), vehicle: Klucel (hydroxypropylcellulose) (HPC)) 98 % of control.
On to `Cc1cc(C)c(C(=O)OC(C)CNC2CCCCC2)c(C)c1` (stereo not given), for which the T/C (dose: 75.0 mg/kg/injection, schedule: Q01DX001 (ip), vehicle: carboxymethylcellulose (CMC)) is 96 % of control and the T/C (dose: 150.0 mg/kg/injection, schedule: Q01DX001 (ip), vehicle: carboxymethylcellulose (CMC)) is 102 % of control.

The values are drawn from PubChem BioAssay AID248 (DTP/NCI, 2004).
